Data reported in the kinase profiling compilation of Christmann-Franck et al. (2016).

What was measured:
Test in all cases: radiometric filter-binding kinase assay, Kinase HotSpot
Settings in all cases: compound 0.5 µM; ATP 10 µM
NUAK2 (human) = NUAK2 (human) (UniProt Q9H093)
IKBKE (human) = IKBKE (human) (UniProt Q14164)
PTK6 (human) = PTK6 (human) (UniProt Q13882)
MAPK9 (human) = MAPK9 (human) (UniProt P45984)
MUSK (human) = MUSK (human) (UniProt O15146)
MET (human) = MET (human) (UniProt P08581)
EPHA2 (human) = EPHA2 (human) (UniProt P29317)
CDC42BPB (human) = CDC42BPB (human) (UniProt Q9Y5S2)
EPHA8 (human) = EPHA8 (human) (UniProt P29322)
NEK1 (human) = NEK1 (human) (UniProt Q96PY6)
NEK7 (human) = NEK7 (human) (UniProt Q8TDX7)
FGFR1 (human) = FGFR1 (human) (UniProt P11362)
Chain of FGFR1 (human) (P11362 whole entry, looked up): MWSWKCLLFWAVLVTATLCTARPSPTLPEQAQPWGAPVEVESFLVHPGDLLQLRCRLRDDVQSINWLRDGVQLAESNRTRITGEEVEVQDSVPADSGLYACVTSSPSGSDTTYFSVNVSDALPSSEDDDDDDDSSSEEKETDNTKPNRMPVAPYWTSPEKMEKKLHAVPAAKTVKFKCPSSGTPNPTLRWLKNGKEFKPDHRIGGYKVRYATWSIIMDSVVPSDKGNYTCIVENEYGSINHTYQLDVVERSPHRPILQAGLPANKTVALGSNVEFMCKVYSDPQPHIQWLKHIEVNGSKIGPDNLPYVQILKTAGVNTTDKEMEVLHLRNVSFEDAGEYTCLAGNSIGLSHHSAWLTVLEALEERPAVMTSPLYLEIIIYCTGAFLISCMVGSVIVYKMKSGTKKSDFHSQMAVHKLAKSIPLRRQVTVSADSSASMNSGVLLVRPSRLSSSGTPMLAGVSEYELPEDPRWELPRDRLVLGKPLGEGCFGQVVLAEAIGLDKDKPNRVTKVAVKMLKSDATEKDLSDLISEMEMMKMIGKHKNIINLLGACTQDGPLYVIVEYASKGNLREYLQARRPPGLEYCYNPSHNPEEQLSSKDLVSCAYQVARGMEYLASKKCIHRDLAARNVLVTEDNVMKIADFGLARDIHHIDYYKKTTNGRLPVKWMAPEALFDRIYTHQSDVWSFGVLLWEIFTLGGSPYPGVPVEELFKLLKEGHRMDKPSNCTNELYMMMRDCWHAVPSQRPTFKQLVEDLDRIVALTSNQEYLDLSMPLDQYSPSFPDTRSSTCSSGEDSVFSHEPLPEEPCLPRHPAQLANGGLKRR

TTK (human) = TTK (human) (UniProt P33981)
Chain of TTK (human) (P33981 whole entry, looked up): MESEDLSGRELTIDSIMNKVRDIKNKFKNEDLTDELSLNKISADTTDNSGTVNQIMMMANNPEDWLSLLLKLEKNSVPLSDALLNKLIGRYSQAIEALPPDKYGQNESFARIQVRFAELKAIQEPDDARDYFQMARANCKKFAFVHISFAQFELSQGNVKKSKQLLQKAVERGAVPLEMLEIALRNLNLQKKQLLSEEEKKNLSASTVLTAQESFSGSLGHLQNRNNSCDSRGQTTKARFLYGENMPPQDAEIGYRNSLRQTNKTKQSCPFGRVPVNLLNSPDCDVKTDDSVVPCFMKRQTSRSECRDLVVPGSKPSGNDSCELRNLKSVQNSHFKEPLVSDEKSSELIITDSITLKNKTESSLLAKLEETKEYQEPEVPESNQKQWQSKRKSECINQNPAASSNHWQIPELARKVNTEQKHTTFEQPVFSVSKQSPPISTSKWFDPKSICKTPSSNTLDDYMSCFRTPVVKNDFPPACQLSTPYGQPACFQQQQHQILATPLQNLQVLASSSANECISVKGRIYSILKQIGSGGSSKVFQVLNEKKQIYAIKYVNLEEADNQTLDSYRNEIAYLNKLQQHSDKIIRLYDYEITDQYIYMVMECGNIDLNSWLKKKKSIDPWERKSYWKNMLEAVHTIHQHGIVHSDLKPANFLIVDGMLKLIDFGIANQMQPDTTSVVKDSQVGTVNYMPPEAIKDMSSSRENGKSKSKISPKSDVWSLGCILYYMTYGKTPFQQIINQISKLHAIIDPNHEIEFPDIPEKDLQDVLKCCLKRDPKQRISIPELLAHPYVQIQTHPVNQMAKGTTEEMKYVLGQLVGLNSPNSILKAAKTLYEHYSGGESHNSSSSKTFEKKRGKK

NTRK3 (human) = NTRK3 (human) (UniProt Q16288)
MATK (human) = MATK (human) (UniProt P42679)
INSR (human) = INSR (human) (UniProt P06213)
PRKG2 (human) = PRKG2 (human) (UniProt Q13237)
Chain of PRKG2 (human) (Q13237 whole entry, looked up): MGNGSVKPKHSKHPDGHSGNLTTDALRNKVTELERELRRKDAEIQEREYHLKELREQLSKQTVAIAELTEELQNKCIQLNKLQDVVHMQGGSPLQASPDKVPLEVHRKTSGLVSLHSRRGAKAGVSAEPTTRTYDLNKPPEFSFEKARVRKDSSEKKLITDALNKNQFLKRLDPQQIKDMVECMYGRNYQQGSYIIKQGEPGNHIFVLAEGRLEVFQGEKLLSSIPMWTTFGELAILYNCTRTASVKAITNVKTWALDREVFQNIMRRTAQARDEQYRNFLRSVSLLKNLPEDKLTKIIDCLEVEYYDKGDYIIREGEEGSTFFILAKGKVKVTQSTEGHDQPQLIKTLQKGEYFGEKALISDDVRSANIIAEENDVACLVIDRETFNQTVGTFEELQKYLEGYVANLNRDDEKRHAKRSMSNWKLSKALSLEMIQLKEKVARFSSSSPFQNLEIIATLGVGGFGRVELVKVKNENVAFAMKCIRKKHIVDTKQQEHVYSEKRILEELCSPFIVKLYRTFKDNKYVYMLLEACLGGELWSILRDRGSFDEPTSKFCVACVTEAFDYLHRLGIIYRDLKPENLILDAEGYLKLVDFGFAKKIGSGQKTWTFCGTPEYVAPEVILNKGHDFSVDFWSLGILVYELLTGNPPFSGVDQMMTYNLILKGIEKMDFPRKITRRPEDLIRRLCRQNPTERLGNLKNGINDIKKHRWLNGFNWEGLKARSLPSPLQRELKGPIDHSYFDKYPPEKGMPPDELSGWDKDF

STK24 (human) = STK24 (human) (UniProt Q9Y6E0)
PIM1 (human) = PIM1 (human) (UniProt P11309)
Chain of PIM1 (human) (P11309 whole entry, looked up): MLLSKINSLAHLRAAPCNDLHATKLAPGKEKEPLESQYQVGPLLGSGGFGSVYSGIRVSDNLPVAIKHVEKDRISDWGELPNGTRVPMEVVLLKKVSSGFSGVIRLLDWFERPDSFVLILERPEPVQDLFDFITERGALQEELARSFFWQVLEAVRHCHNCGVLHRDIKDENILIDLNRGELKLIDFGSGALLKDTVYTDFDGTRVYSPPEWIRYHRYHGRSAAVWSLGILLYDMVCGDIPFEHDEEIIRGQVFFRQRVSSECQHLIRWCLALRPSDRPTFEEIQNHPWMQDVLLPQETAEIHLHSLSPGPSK

CAMK4 (human) = CAMK4 (human) (UniProt Q16566)
DYRK3 (human) = DYRK3 (human) (UniProt O43781)
Chain of DYRK3 (human) (O43781 whole entry, looked up): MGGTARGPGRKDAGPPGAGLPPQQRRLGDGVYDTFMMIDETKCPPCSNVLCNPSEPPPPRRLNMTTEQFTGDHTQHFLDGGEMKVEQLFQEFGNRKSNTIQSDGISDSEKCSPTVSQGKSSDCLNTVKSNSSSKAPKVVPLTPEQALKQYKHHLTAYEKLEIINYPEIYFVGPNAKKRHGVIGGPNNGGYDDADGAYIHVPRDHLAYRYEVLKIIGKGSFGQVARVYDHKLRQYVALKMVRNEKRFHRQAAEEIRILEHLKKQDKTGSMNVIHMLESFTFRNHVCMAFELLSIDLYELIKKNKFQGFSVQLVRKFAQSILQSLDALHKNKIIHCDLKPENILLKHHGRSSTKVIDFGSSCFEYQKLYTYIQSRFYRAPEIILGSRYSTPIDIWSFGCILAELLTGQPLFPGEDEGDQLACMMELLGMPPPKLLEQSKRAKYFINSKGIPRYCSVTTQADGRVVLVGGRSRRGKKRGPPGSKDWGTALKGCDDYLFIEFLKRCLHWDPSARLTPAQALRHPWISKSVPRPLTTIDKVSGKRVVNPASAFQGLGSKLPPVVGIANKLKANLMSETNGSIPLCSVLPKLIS

MAP4K5 (human) = MAP4K5 (human) (UniProt Q9Y4K4)
PAK2 (human) = PAK2 (human) (UniProt Q13177)
OXSR1 (human) = OXSR1 (human) (UniProt O95747)
ADRBK2 (human) = ADRBK2 (human) (UniProt P35626)
Chain of ADRBK2 (human) (P35626 whole entry, looked up): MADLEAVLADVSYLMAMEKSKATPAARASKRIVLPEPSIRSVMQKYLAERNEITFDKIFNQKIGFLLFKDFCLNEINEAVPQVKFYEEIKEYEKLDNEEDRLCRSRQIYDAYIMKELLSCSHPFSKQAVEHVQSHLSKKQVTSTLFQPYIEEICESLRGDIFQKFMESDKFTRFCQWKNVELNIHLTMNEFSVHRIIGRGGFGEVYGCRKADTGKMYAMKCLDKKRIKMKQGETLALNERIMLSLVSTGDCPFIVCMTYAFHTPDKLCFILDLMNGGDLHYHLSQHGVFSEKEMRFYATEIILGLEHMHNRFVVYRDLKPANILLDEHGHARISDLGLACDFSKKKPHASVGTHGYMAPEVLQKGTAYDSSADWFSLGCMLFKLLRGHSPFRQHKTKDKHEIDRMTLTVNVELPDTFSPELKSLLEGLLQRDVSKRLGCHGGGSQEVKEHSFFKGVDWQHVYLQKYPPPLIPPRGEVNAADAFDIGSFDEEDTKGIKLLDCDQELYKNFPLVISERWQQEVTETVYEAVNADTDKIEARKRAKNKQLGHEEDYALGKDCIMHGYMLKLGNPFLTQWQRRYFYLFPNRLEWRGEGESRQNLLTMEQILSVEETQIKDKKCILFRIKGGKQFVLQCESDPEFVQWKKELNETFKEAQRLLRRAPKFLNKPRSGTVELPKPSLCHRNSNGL

RPS6KA6 KD1 KD2 (human) = RPS6KA6 KD1 KD2 (human) (UniProt Q9UK32)
HCK (human) = HCK (human) (UniProt P08631)
CAMK2A (human) = CAMK2A (human) (UniProt Q9UQM7)
PTK2 (human) = PTK2 (human) (UniProt Q05397)
PRKX (human) = PRKX (human) (UniProt P51817)
MARK1 (human) = MARK1 (human) (UniProt Q9P0L2)
SRPK3 (human) = SRPK3 (human) (UniProt Q9UPE1)
EPHA3 (human) = EPHA3 (human) (UniProt P29320)
NEK6 (human) = NEK6 (human) (UniProt Q9HC98)
Chain of NEK6 (human) (Q9HC98 whole entry, looked up): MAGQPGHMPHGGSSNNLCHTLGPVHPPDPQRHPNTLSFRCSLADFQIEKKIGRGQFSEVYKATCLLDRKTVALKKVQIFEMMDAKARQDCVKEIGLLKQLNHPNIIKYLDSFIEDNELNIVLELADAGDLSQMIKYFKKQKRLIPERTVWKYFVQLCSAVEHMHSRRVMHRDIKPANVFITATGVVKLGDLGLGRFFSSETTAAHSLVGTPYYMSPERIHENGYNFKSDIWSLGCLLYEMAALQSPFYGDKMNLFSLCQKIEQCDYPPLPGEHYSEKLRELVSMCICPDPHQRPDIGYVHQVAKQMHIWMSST

CAMK2G (human) = CAMK2G (human) (UniProt Q13555)
MST4 (human) = MST4 (human) (UniProt Q9P289)
PRKCB1 (human) = PRKCB1 (human) (UniProt P05771)
TGFBR2 (human) = TGFBR2 (human) (UniProt P37173)
FYN (human) = FYN (human) (UniProt P06241)
SLK (human) = SLK (human) (UniProt Q9H2G2)
CSNK1G2 (human) = CSNK1G2 (human) (UniProt P78368)
RIPK2 (human) = RIPK2 (human) (UniProt O43353)
Chain of RIPK2 (human) (O43353 whole entry, looked up): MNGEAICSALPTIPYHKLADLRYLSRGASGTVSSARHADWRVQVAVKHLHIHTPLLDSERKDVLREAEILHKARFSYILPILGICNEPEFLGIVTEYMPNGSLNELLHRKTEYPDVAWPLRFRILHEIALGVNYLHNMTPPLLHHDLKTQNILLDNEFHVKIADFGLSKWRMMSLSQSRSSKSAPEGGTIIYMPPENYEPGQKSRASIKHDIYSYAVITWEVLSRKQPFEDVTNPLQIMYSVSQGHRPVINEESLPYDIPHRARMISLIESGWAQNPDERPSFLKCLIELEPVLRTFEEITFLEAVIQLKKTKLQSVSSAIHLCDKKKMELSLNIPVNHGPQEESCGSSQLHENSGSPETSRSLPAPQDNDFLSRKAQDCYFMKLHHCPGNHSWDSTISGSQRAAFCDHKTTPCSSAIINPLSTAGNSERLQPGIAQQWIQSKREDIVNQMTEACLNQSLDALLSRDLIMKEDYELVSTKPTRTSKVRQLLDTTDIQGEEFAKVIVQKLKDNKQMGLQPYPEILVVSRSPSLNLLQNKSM

Work on `Nc1ccc2ncnc(NCCc3ccc(Oc4ccccc4)cc3)c2c1` yielded a residual activity (NUAK2 (human)) of 112%, a residual activity (IKBKE (human)) of 95.6% and a residual activity (PTK6 (human)) of 93.3%. The residual activity (MAPK9 (human)) was 85%, the residual activity (MUSK (human)) was 102% and the residual activity (MET (human)) was 99.9%. For the same compound, the residual activity (EPHA2 (human)) was 103%, the residual activity (CDC42BPB (human)) was 105% and the residual activity (EPHA8 (human)) was 101%. For the same compound, the residual activity (NEK1 (human)) was 102%, the residual activity (NEK7 (human)) was 96% and the residual activity (FGFR1 (human)) was 86.3%. For the same compound, the residual activity (TTK (human)) was 97.6%, the residual activity (NTRK3 (human)) was 98.4% and the residual activity (MATK (human)) was 89.6%. The residual activity (INSR (human)) was 103%, the residual activity (PRKG2 (human)) was 105% and the residual activity (STK24 (human)) was 107%. For the same compound, the residual activity (PIM1 (human)) was 102%, the residual activity (CAMK4 (human)) was 98.9% and the residual activity (DYRK3 (human)) was 89.6%. The residual activity (MAP4K5 (human)) was 94.8%, the residual activity (PAK2 (human)) was 102% and the residual activity (OXSR1 (human)) was 101%. It also gave a residual activity (ADRBK2 (human)) of 97.9%, a residual activity (RPS6KA6 KD1 KD2 (human)) of 103% and a residual activity (HCK (human)) of 96.4%. For the same compound, the residual activity (CAMK2A (human)) was 71.3%, the residual activity (PTK2 (human)) was 98.6% and the residual activity (PRKX (human)) was 104%. The residual activity (MARK1 (human)) was 103%, the residual activity (SRPK3 (human)) was 96.6% and the residual activity (EPHA3 (human)) was 102%. For the same compound, the residual activity (NEK6 (human)) was 103%, the residual activity (CAMK2G (human)) was 118% and the residual activity (MST4 (human)) was 94.4%. It also gave a residual activity (PRKCB1 (human)) of 96.3%, a residual activity (TGFBR2 (human)) of 110% and a residual activity (FYN (human)) of 103%. The residual activity (SLK (human)) was 102%, the residual activity (CSNK1G2 (human)) was 100% and the residual activity (RIPK2 (human)) was 94.6%.

`O=c1cc(N2CCOCC2)oc2c1ccc1ccccc12` showed a residual activity (NUAK2 (human)) of 120%, a residual activity (IKBKE (human)) of 101% and a residual activity (PTK6 (human)) of 101%. The residual activity (MAPK9 (human)) was 101%, the residual activity (MUSK (human)) was 75.6% and the residual activity (MET (human)) was 161%. The residual activity (EPHA2 (human)) was 110%, the residual activity (CDC42BPB (human)) was 98.3% and the residual activity (EPHA8 (human)) was 101%. It also gave a residual activity (NEK1 (human)) of 106%, a residual activity (NEK7 (human)) of 96.6% and a residual activity (FGFR1 (human)) of 92.1%. It also gave a residual activity (TTK (human)) of 103%, a residual activity (NTRK3 (human)) of 103% and a residual activity (MATK (human)) of 90.7%. The residual activity (INSR (human)) was 92.3%, the residual activity (PRKG2 (human)) was 102% and the residual activity (STK24 (human)) was 103%. It also gave a residual activity (PIM1 (human)) of 54.8%, a residual activity (CAMK4 (human)) of 94% and a residual activity (DYRK3 (human)) of 96%. For the same compound, the residual activity (MAP4K5 (human)) was 103%, the residual activity (PAK2 (human)) was 103% and the residual activity (OXSR1 (human)) was 108%. For the same compound, the residual activity (ADRBK2 (human)) was 102%, the residual activity (RPS6KA6 KD1 KD2 (human)) was 95.4% and the residual activity (HCK (human)) was 114%. It also gave a residual activity (CAMK2A (human)) of 99.4%, a residual activity (PTK2 (human)) of 108% and a residual activity (PRKX (human)) of 96.6%. The residual activity (MARK1 (human)) was 99.5%, the residual activity (SRPK3 (human)) was 105% and the residual activity (EPHA3 (human)) was 112%. For the same compound, the residual activity (NEK6 (human)) was 92.5%, the residual activity (CAMK2G (human)) was 95.5% and the residual activity (MST4 (human)) was 93.2%. For the same compound, the residual activity (PRKCB1 (human)) was 93.4%, the residual activity (TGFBR2 (human)) was 122% and the residual activity (FYN (human)) was 113%. For the same compound, the residual activity (SLK (human)) was 102%, the residual activity (CSNK1G2 (human)) was 102% and the residual activity (RIPK2 (human)) was 104%.

`Oc1cccc(-c2nc(N3CCOCC3)c3oc4ncccc4c3n2)c1` showed a residual activity (NUAK2 (human)) of 75.3%, a residual activity (IKBKE (human)) of 98.8% and a residual activity (PTK6 (human)) of 80.8%. The residual activity (MAPK9 (human)) was 89.4%, the residual activity (MUSK (human)) was 87.8% and the residual activity (MET (human)) was 97.8%. It also gave a residual activity (EPHA2 (human)) of 99.9%, a residual activity (CDC42BPB (human)) of 99.4% and a residual activity (EPHA8 (human)) of 93.9%. It also gave a residual activity (NEK1 (human)) of 77.8%, a residual activity (NEK7 (human)) of 97.3% and a residual activity (FGFR1 (human)) of 91.7%. The residual activity (TTK (human)) was 93.3%, the residual activity (NTRK3 (human)) was 91.1% and the residual activity (MATK (human)) was 86.7%. It also gave a residual activity (INSR (human)) of 98.6%, a residual activity (PRKG2 (human)) of 89.2% and a residual activity (STK24 (human)) of 100%. The residual activity (PIM1 (human)) was 91.2%, the residual activity (CAMK4 (human)) was 103% and the residual activity (DYRK3 (human)) was 94.9%. For the same compound, the residual activity (MAP4K5 (human)) was 82.4%, the residual activity (PAK2 (human)) was 97.5% and the residual activity (OXSR1 (human)) was 93.2%. It also gave a residual activity (ADRBK2 (human)) of 110%, a residual activity (RPS6KA6 KD1 KD2 (human)) of 98.2% and a residual activity (HCK (human)) of 91.9%. For the same compound, the residual activity (CAMK2A (human)) was 93.7%, the residual activity (PTK2 (human)) was 93.5% and the residual activity (PRKX (human)) was 96.2%. The residual activity (MARK1 (human)) was 97.6%, the residual activity (SRPK3 (human)) was 95% and the residual activity (EPHA3 (human)) was 93.7%. The residual activity (NEK6 (human)) was 106%, the residual activity (CAMK2G (human)) was 100% and the residual activity (MST4 (human)) was 98.6%. The residual activity (PRKCB1 (human)) was 97.8%, the residual activity (TGFBR2 (human)) was 102% and the residual activity (FYN (human)) was 91.7%. It also gave a residual activity (SLK (human)) of 101%, a residual activity (CSNK1G2 (human)) of 88.1% and a residual activity (RIPK2 (human)) of 87.4%.
